Experimental data from patent publication EP4790048A1, “S1PR4 REGULATOR COMPOUND FOR AUTOIMMUNE DISEASE TREATMENT AND APPLICATION THEREOF” (Shengyuan Zetong (Shanghai) Pharmaceutical Co., Ltd, priority 2023, dated 2025).

molecular target: T1, hS1P4 (Homo sapiens, UniProt O95977); assay: Tango β-arrestin recruitment luciferase assay, Tango-hS1P4-CHO; type: cell-based; conditions: β-arrestin recruitment; 20 h drug treatment; top 45 µM, 9 serial 5-fold dilutions; positive control 25 µM BAF-312; read-out: Tango-hS1P4-CHO EC50
T1 construct: expressed in transfected cells; host or cells: CHO
T1 sequence (O95977 1-384): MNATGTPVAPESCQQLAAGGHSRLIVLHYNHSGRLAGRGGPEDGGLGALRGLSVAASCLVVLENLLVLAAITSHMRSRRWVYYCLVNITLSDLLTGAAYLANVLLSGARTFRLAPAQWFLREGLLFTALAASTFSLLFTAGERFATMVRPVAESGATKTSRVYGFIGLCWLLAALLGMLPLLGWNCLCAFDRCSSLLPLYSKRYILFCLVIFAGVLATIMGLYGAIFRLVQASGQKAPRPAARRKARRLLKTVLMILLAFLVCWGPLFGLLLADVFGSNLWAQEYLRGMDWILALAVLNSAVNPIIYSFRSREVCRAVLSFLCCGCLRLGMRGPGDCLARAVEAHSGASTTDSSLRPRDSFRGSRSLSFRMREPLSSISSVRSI
Text: (§1) The Tango assay detects ligand-dependent GPCR activity through the interaction between β-arrestin and GPCRs. […] The NTEV fragment and the tetracycline transactivator (tTA), an artificial transcription factor, are fused at the C-terminus of the GPCR, while the CTEV fragment is fused to human β-arrestin 2. To enhance the stability of the interaction between GPCR and β-arrestin, a short sequence from the C-terminus of the human arginine vasopressin receptor 2 (V2 tail) is inserted between the GPCR and NTEV. The V2 tail contains multiple GRK phosphorylation sites, which strengthen β-arrestin binding upon phosphorylation. The CTEV fragment carries the stabile point mutation S219P and is truncated at residue 221 to remove the autoinhibitory C-terminal tail. Meanwhile, β-arrestin 2 is truncated to lack the entire C-terminal tail (residues 383-410 deleted). This truncation confers robust stimulus-dependent receptor desensitization, thereby improving detection sensitivity compared with wild-type β-arrestin 2. The UAS reporter construct consists of upstream activating sequence (UAS) elements, a minimal CMV promoter, and a tTA-dependent luciferase reporter gene. Therefore, constructing Tango cells requires the co-transfection of the above three plasmids into host cells. Upon GPCR activation and β-arrestin recruitment, the TEV enzyme at the β-arrestin terminus cleaves tTA from the GPCR C-terminus. The released tTA initiates tTA-dependent luciferase transcription, and compound activity is ultimately determined by measuring luminescence intensity.
(§2) • 1) Tango cell line from was digested from the culture dish respectively. After cell counting, the cells were plated at a density of 10,000 cells per well with […] into a white opaque 96-well plate (add 60 µL D'Hanks to the surrounding wells), and incubated overnight (20 h) in a 5% CO2 incubator at 37°C. The cell density will reach approximately 90% the next day. • 2) After 20 h, 30 µL of serially diluted compound solution was added to each well. The control group was supplemented with 30 µL F12K complete medium. Each group had three replicate wells. • 3) Samples were collected after 20 h of drug treatment.
(§3) (All compounds were tested at a final concentration of 45 µM, with 9 serial dilutions at 5-fold intervals. 1 µM BAF-312 was used as the positive control for S1PR1, and 25 µM BAF-312 was used as the positive control for S1PR4.

Row | EC50 | Structure (SMILES)
1 | > 10000 nM | CCc1cc(/C(C)=N/OCc2ccc(-c3cnc(F)cn3)c(C)c2)ccc1CN1CCCC(C(=O)O)C1 (stereo not shown) [Compound 92, (E)-1-(2-ethyl-4-(1-(((3-methyl-4-(5-fluoropyrazin-2-yl)-benzyl)oxy)imino)ethyl)benzyl)piperidine-3-carboxylic acid]
2 | 17.4 ± 0.39 nM | CCc1cc(/C(C)=N/OCc2ccc(-c3cnc(F)cn3)cc2F)ccc1CN1CC[C@H](C(=O)O)C1 [Compound 87, (S, E)-1-(2-ethyl-4-(1-(((2-fluoro-4-(5-fluoropyrazin-2-yl)benzyl)oxy)imino)ethyl)benzyl)pyrrolidine-3-carboxylic acid]
3 | 269 nM | CCc1cc(/C(C)=N/OCc2ccc(-c3cnn(C)c3)cc2)ccc1CN1CC[C@H](C(=O)O)C1 [Compound 55]
4 | 7.77 ± 1.02 nM | CCc1cc(/C(C)=N/OCc2ccc(-c3ccccc3F)c(F)c2)ccc1CN1CC[C@H](C(=O)O)C1 [Compound 64]
5 | 4.22 ± 1.19 nM | CCc1cc(/C(C)=N/OCc2ccc(-c3cnc(O)cn3)c(C)c2)ccc1CN1CC[C@H](C(=O)O)C1 [Compound 5, (S, E)-1-(2-ethyl-4-(1-(((3-methyl-4-(5-hydroxypyrazin-2-yl)-benzyl)oxy)imino)ethyl)benzyl)pyrrolidine-3-carboxylic acid]

The next lines start with the compound.

Row | Structure (SMILES) | EC50
6 | CCc1cc(/C(C)=N/OCc2ccc(-c3ccncc3)c(C)c2)ccc1CN1CC[C@H](C(=O)O)C1 [Compound 37, (S, E)-1-(2-ethyl-4-(1-(((3-methyl-4-(pyridin-4-yl)benzyl)oxy)imino)ethyl)benzyl)pyrrolidine-3-carboxylic acid] | 15.6 nM
7 | CCc1cc(/C(C)=N/OCc2ccc(-c3ccoc3)c(C)c2)ccc1CN1CC[C@H](C(=O)O)C1 [Compound 36, (S, E)-1-(2-ethyl-4-(1-(((4-(furan-3-yl)-3-methylbenzyl)oxy)imino)ethyl)benzyl)pyrrolidine-3-carboxylic acid] | 1.67 nM
8 | COc1cc(/C(C)=N/OCc2ccc(C3CCCCC3)c(C(F)(F)F)c2)ccc1CN1CC(C(=O)O)C1 [Compound 27] | 1700 nM
9 | CCc1cc(/C(C)=N/OCc2ccc(-c3cnc(F)cn3)c(C)c2)ccc1CN1CC(C(=O)O)C1 [Compound 91, (E)-1-(2-ethyl-4-(1-(((3-methyl-4-(5-fluoropyrazin-2-yl)-benzyl)oxy)imino)ethyl)benzyl)azetidine-3-carboxylic acid] | > 10000 nM
10 | CCc1cc(/C(C)=N/OCc2ccc(-c3cccs3)c(C)c2)ccc1CN1CC[C@H](C(=O)O)C1 [Compound 72, (S, E)-1-(2-ethyl-4-(1-(((3-methyl-4-(thiophen-2-yl)benzyl)oxy)imino)ethyl)benzyl)pyrrolidine-3-carboxylic acid] | 1.51 ± 0.64 nM
11 | CCc1cc(/C(C)=N/OCc2ccc(C3CCCC3)c(C)c2)ccc1CN1CC[C@H](C(=O)O)C1 [Compound 62, (S, E)-1-(2-ethyl-4-(1-(((4-cyclopentyl-3-methylbenzyl)oxy)imino)ethyl)benzyl)pyrrolidine-3-carboxylic acid] | 3.31 ± 0.24 nM
12 | CCc1cc(/C(C)=N/OCc2ccc(-c3ccsc3)cc2)ccc1CN1CC[C@H](C(=O)O)C1 [Compound 56] | 5.05 ± 1.84 nM
13 | CCc1cc(/C(C)=N/OCc2ccc(OC(C)C)c(C#N)c2)ccc1CN1CC(C(=O)O)C1 [Compound 16, (E)-1-(4-(1-(((3-cyano-4-isopropoxybenzyl)oxy)imino)ethyl)-2-ethylbenzyl)azetidine-3-carboxylic acid] | 3320 nM
14 | CCc1cc(/C(C)=N/OCc2ccc(-c3cncnc3)c(C)c2)ccc1CN1CC(C(=O)O)C1 [Compound 81, (E)-1-(2-ethyl-4-(1-(((3-methyl-4-(pyrimidin-5-yl)benzyl)oxy)imino)ethyl)benzyl)azetidine-3-carboxylic acid] | 103 ± 9.1 nM

molecular target: T2, hS1P1 (Homo sapiens, UniProt P21453); assay: Tango β-arrestin recruitment luciferase assay, Tango-hS1P1-CHO; type: cell-based; conditions: β-arrestin recruitment; 20 h drug treatment; top 45 µM, 9 serial 5-fold dilutions; positive control 1 µM BAF-312; read-out: Tango-hS1P1-CHO EC50
T2 construct: expressed in transfected cells; host or cells: CHO
T2 sequence (P21453 whole entry): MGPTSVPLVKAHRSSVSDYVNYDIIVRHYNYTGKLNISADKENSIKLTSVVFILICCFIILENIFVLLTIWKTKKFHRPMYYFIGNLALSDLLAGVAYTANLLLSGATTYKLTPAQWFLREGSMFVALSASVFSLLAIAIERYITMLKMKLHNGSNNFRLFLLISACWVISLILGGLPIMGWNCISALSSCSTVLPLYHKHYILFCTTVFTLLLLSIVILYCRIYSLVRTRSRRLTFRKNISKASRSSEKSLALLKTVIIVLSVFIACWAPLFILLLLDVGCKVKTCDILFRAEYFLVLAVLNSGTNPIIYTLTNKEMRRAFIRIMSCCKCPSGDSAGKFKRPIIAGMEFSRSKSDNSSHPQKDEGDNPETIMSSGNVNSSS
Text: as §1, §2, §3

Row | EC50 | Structure (SMILES)
15 | > 10000 nM | CCc1cc(/C(C)=N/OCc2ccc(-c3cnc(F)cn3)c(C)c2)ccc1CN1CCCC(C(=O)O)C1 (stereo not shown) [Compound 92, (E)-1-(2-ethyl-4-(1-(((3-methyl-4-(5-fluoropyrazin-2-yl)-benzyl)oxy)imino)ethyl)benzyl)piperidine-3-carboxylic acid]
16 | > 10000 nM | CCc1cc(/C(C)=N/OCc2ccc(-c3cnsc3)cc2)ccc1CN1CC[C@H](C(=O)O)C1 [Compound 74]
17 | > 10000 nM | CCc1cc(/C(C)=N/OCc2ccc(-c3cnc(F)cn3)cc2F)ccc1CN1CC[C@H](C(=O)O)C1 [Compound 87, (S, E)-1-(2-ethyl-4-(1-(((2-fluoro-4-(5-fluoropyrazin-2-yl)benzyl)oxy)imino)ethyl)benzyl)pyrrolidine-3-carboxylic acid]
18 | > 10000 nM | CCc1cc(/C(C)=N/OCc2ccc(-c3ccnnc3)c(C)c2)ccc1CN1CC[C@H](C(=O)O)C1 [Compound 84, (S, E)-1-(2-ethyl-4-(1-(((3-methyl-4-(pyridazin-4-yl)benzyl)oxy)imino)ethyl)benzyl)pyrrolidine-3-carboxylic acid]
19 | > 10000 nM | CCc1cc(/C(C)=N/OCc2ccc(-c3cnn(C)c3)c(C)c2)ccc1CN1CC[C@H](C(=O)O)C1 [Compound 40]
20 | > 10000 nM | CCc1cc(/C(C)=N/OCc2ccc(-c3cncnc3)cc2)ccc1CN1CC[C@H](C(=O)O)C1 [Compound 70, (S, E)-1-(2-ethyl-4-(1-(((4-(pyrimidin-5-yl)benzyl)oxy)imino)ethyl)benzyl)pyrrolidine-3-carboxylic acid]
21 | > 10000 nM | CCc1cc(/C(C)=N/OCc2ccc(-c3ccns3)cc2)ccc1CN1CC[C@H](C(=O)O)C1 [Compound 75]
22 | > 10000 nM | CCc1cc(/C(C)=N/OCc2ccc(-c3ccc(F)nc3)cc2F)ccc1CN1CC[C@H](C(=O)O)C1 [Compound 65]
23 | > 10000 nM | CCc1cc(/C(C)=N/OCc2ccc(-c3cncnc3C)c(C)c2)ccc1CN1CC[C@H](C(=O)O)C1 [Compound 83, (S, E)-1-(2-ethyl-4-(1-(((3-methyl-4-(4-methylpyrimidin-5-yl)benzyl)oxy)imino)ethyl)benzyl)pyrrolidine-3-carboxylic acid]
24 | > 10000 nM | CCc1cc(/C(C)=N/OCc2ccc(-c3cnc(F)nc3)cc2F)ccc1CN1CC[C@H](C(=O)O)C1 [Compound 79, (S, E)-1-(2-ethyl-4-(1-(((2-fluoro-4-(2-fluoropyrimidin-5-yl)benzyl)oxy)imino)ethyl)benzyl)pyrrolidine-3-carboxylic acid]
25 | > 10000 nM | CCc1cc(/C(C)=N/OCc2ccc(-c3cnn(C)c3)cc2)ccc1CN1CC[C@H](C(=O)O)C1 [Compound 55]
26 | > 10000 nM | CCc1cc(/C(C)=N/OCc2ccc(-c3ccc(F)nc3)nc2)ccc1CN1CC[C@H](C(=O)O)C1 [Compound 66, (S, E)-1-(2-ethyl-4-(1-(((6'-fluoro-[2,3'-bipyridin]-5-yl)methoxy)imino)ethyl)benzyl)pyrrolidine-3-carboxylic acid]
27 | > 10000 nM | CCc1cc(/C(C)=N/OCc2c(F)cc(-c3ccc(F)nc3)cc2F)ccc1CN1CC[C@H](C(=O)O)C1 [Compound 86, (S, E)-1-(2-ethyl-4-(1-(((2,6-difluoro-4-(6-fluoropyridin-3-yl)benzyl)oxy)imino)ethyl)benzyl)pyrrolidine-3-carboxylic acid]
28 | > 10000 nM | CCc1cc(/C(C)=N/OCc2ccc(-c3cncnc3)c(F)c2)ccc1CN1CC[C@H](C(=O)O)C1 [Compound 71, (S, E)-1-(2-ethyl-4-(1-(((3-fluoro-4-(pyrimidin-5-yl)benzyl)oxy)imino)ethyl)benzyl)pyrrolidine-3-carboxylic acid]

More lines, now with the values behind:

Row | Structure (SMILES) | EC50
29 | CCc1cc(/C(C)=N/OCc2ccc(-c3ccncc3)c(C)c2)ccc1CN1CC[C@H](C(=O)O)C1 [Compound 37, (S, E)-1-(2-ethyl-4-(1-(((3-methyl-4-(pyridin-4-yl)benzyl)oxy)imino)ethyl)benzyl)pyrrolidine-3-carboxylic acid] | 644 nM
30 | CCc1cc(/C(C)=N/OCc2ccc(-c3ccoc3)c(C)c2)ccc1CN1CC[C@H](C(=O)O)C1 [Compound 36, (S, E)-1-(2-ethyl-4-(1-(((4-(furan-3-yl)-3-methylbenzyl)oxy)imino)ethyl)benzyl)pyrrolidine-3-carboxylic acid] | 103 nM
31 | CCc1cc(/C(C)=N/OCc2ccc(-c3ccccc3)c(C)c2)ccc1CN1CCCC(C(=O)O)C1 (stereo not shown) [Compound 33] | 454 nM
32 | CCc1cc(/C(C)=N/OCc2ccc3c(c2)CCCC3)ccc1CN1CC(C(=O)O)C1 [Compound 23, (E)-1-(2-ethyl-4-(1-(((5,6,7,8-tetrahydronaphthalen-2-yl)methoxy)imino)ethyl)benzyl)azetidine-3-carboxylic acid] | 560 nM
33 | CCc1cc(/C(C)=N/OCc2ccc(-c3ccccc3)cc2)ccc1CN1CC(C(=O)O)C1 [Compound 20, (E)-1-(4-(1-(([1,1'-biphenyl]-4-ylmethoxy)imino)ethyl)-2-ethylbenzyl)azetidine-3-carboxylic acid] | 782 ± 24.9 nM
34 | CCc1cc(/C(C)=N/OCc2ccc(-c3cnn(C(C)(C)C)c3)c(C)c2)ccc1CN1CC[C@H](C(=O)O)C1 [Compound 39] | > 10000 nM
35 | CCc1cc(/C(C)=N/OCc2ccc3ccccc3c2)ccc1CN1CC(C(=O)O)C1 [Compound 15] | 807 nM
36 | CCc1cc(/C(C)=N/OCc2ccc(-c3cncn3C)c(C)c2)ccc1CN1CC[C@H](C(=O)O)C1 [Compound 44] | > 10000 nM
37 | CCc1cc(/C(C)=N/OCc2ccc(-c3c(C)noc3C)c(C)c2)ccc1CN1CC[C@H](C(=O)O)C1 [Compound 45] | > 10000 nM
